Test results reported in patent US12679843B2, “Pyrrolopyrimidine amines as complement inhibitors” (BioCryst Pharmaceuticals, Inc., priority 2020, dated 2026).

Molecular target: Factor D (Homo sapiens, UniProt P00746)
Assay: Factor D esterolytic assay (Z-Lys-SBzl thioester substrate, DTNB, 405 nm)
Type: biochemical
Conditions: substrate Z-Lys-SBzl 1.29 mM, 100 mM HEPES, 500 mM NaCl, pH 7.5, 10% DMSO, tested a minimum of three times
Outline: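 Human Factor D hydrolysis of Z-Lys-SBzl (1.29 mM) monitored at 405 nm via DTNB thiol detection for 600 s, 690 nm background subtracted. Buffer 100 mM HEPES, 500 mM NaCl, pH 7.5, 10% DMSO; substrate added immediately or after room-temperature preincubation. IC50 from percent inhibition of rate, at least three tests.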

Sequence of Factor D (P00746 26-253): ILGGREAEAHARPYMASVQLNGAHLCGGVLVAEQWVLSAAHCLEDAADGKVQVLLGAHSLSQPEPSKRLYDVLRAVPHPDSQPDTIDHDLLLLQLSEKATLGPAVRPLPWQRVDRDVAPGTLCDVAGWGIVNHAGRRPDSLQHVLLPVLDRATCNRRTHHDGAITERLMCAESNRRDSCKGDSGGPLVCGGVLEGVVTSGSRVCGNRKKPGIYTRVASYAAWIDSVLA

SMILES	IC50 [µM]
COc1cccc(NC(=O)[C@@H]2C[C@H]3C[C@H]3N2C(=O)Cn2cnc3c(N)ncnc32)c1F [Compound 108b, (1R,3S,5R)-2-(2-(6-amino-9H-purin-9-yl)acetyl)-N-(2-fluoro-3-methoxyphenyl)-2-azabicyclo[3.1.0]hexane-3-carboxamide]	> 1
Nc1ncnc2c1nc(Br)n2CC(=O)N1C[C@H](F)C[C@H]1C(=O)NCc1cccc(Cl)c1F [Compound 110d, (2S,4R)-1-(2-(6-amino-8-bromo-9H-purin-9-yl)acetyl)-N-(3-chloro-2-fluorobenzyl)-4-fluoropyrrolidine-2-carboxamide]	> 1
Cc1ncc(-c2cn(CC(=O)N3C[C@H](F)C[C@H]3C(=O)NCc3cccc(Cl)c3F)c3ncnc(N)c23)cn1 [Compound 117d, (2S,4R)-1-(2-(4-amino-5-(2-methylpyrimidin-5-yl)-7H-pyrrolo[2,3-d]pyrimidin-7-yl)acetyl)-N-(3-chloro-2-fluorobenzyl)-4-fluoropyrrolidine-2-carboxamide]	0.1 to 1
Cc1ncc(-c2cn(CC(=O)N3C[C@H](F)C[C@H]3C(=O)Nc3nc(Br)ccc3C)c3ncnc(N)c23)cn1 [Compound 118a, (2S,4R)-1-(2-(4-amino-5-(2-methylpyrimidin-5-yl)-7H-pyrrolo[2,3-d]pyrimidin-7-yl)acetyl)-N-(6-bromo-3-methylpyridin-2-yl)-4-fluoropyrrolidine-2-carboxamide]	> 1
Nc1ncnc2c1ncn2CC(=O)N1CCC[C@H]1C(=O)NCc1cccc(Cl)c1F [Compound 119a, (S)-1-(2-(6-amino-9H-purin-9-yl)acetyl)-N-(3-chloro-2-fluorobenzyl)pyrrolidine-2-carboxamide]	0.1 to 1
Nc1ncnc2c1ncn2CC(=O)N1CC2(CC2)C[C@H]1C(=O)NCc1cccc(Cl)c1F [Compound 120c, (S)-5-(2-(6-amino-9H-purin-9-yl)acetyl)-N-(3-chloro-2-fluorobenzyl)-5-azaspiro[2.4]heptane-6-carboxamide]	> 1
C[C@@H]1C[C@@H](C(=O)NCc2cccc(Cl)c2F)N(C(=O)Cn2cnc3c(N)ncnc32)C1 [Compound 121d, (2S,4R)-1-(2-(6-amino-9H-purin-9-yl)acetyl)-N-(3-chloro-2-fluorobenzyl)-4-methylpyrrolidine-2-carboxamide]	> 1
C[C@@]1(F)C[C@@H](C(=O)NCc2cccc(Cl)c2F)N(C(=O)Cn2cnc3c(N)ncnc32)C1 [Compound 122c, (2S,4R)-1-(2-(6-amino-9H-purin-9-yl)acetyl)-N-(3-chloro-2-fluorobenzyl)-4-fluoro-4-methylpyrrolidine-2-carboxamide]	0.1 to 1
NCCNc1ncnc2c1ncn2CC(=O)N1C[C@H](F)C[C@H]1C(=O)NCc1cccc(Cl)c1F [Compound 123g, (2S,4R)-1-(2-(6-((2-aminoethyl)amino)-9H-purin-9-yl)acetyl)-N-(3-chloro-2-fluorobenzyl)-4-fluoropyrrolidine-2-carboxamide]	> 1
Nc1ncnc2c1ncn2CC(=O)N1[C@@H]2CC[C@@H](C2)[C@H]1C(=O)NCc1cccc(Cl)c1F [Compound 124b, (1R,3S,4S)-2-(2-(6-amino-9H-purin-9-yl)acetyl)-N-(3-chloro-2-fluorobenzyl)-2-azabicyclo[2.2.1]heptane-3-carboxamide]	> 1
Nc1ncnc2c1c(F)cn2CC(=O)N1C[C@H](F)C[C@H]1C(=O)NCc1cccc(Cl)c1F [Compound 125d, (2S,4R)-1-(2-(4-amino-5-fluoro-7H-pyrrolo[2,3-d]pyrimidin-7-yl)acetyl)-N-(3-chloro-2-fluorobenzyl)-4-fluoropyrrolidine-2-carboxamide]	0.1 to 1
Nc1ncnc2c1c(-c1c[nH]c3ccccc13)cn2CC(=O)N1C[C@H](F)C[C@H]1C(=O)NCc1cccc(Cl)c1F [Compound 126f, (2S,4R)-1-(2-(4-amino-5-(1H-indol-3-yl)-7H-pyrrolo[2,3-d]pyrimidin-7-yl)acetyl)-N-(3-chloro-2-fluorobenzyl)-4-fluoropyrrolidine-2-carboxamide]	0.1 to 1
COC(=O)c1cnc2c(ccn2CC(=O)N2[C@@H]3C[C@@H]3C[C@H]2C(=O)Nc2cccc(Br)n2)c1 [Compound 127d, methyl 1-(2-((1R,3S,5R)-3-((6-bromopyridin-2-yl)carbamoyl)-2-azabicyclo[3.1.0]hexan-2-yl)-2-oxoethyl)-1H-pyrrolo[2,3-b]pyridine-5-carboxylate]	> 1
O=C(O)c1cnc2c(ccn2CC(=O)N2[C@@H]3C[C@@H]3C[C@H]2C(=O)Nc2cccc(Br)n2)c1 [Compound 128a, 1-(2-((1R,3S,5R)-3-((6-bromopyridin-2-yl)carbamoyl)-2-azabicyclo[3.1.0]hexan-2-yl)-2-oxoethyl)-1H-pyrrolo[2,3-b]pyridine-5-carboxylic acid]	> 1
Nc1cn(CC(=O)N2[C@@H]3C[C@@H]3C[C@H]2C(=O)Nc2cccc(Br)n2)c2ncncc12 [Compound 129f, (1R,3S,5R)-2-(2-(5-amino-7H-pyrrolo[2,3-d]pyrimidin-7-yl)acetyl)-N-(6-bromopyridin-2-yl)-2-azabicyclo[3.1.0]hexane-3-carboxamide]	0.1 to 1
N#Cc1cn(CC(=O)N2C[C@H](F)C[C@H]2C(=O)NCc2cccc(Cl)c2F)c2ncnc(N)c12 [Compound 130e, (2S,4R)-1-(2-(4-amino-5-cyano-7H-pyrrolo[2,3-d]pyrimidin-7-yl)acetyl)-N-(3-chloro-2-fluorobenzyl)-4-fluoropyrrolidine-2-carboxamide]	0.1 to 1
Nc1ccnc2c1ccn2CC(=O)N1C[C@H](F)C[C@H]1C(=O)NCc1cccc(Cl)c1F [Compound 131e, (2S,4R)-1-(2-(4-amino-1H-pyrrolo[2,3-b]pyridin-1-yl)acetyl)-N-(3-chloro-2-fluorobenzyl)-4-fluoropyrrolidine-2-carboxamide]	0.1 to 1
Cc1nc(N)c2ccn(CC(=O)N3C[C@H](F)C[C@H]3C(=O)NCc3cccc(Cl)c3F)c2n1 [Compound 132d, (2S,4R)-1-(2-(4-amino-2-methyl-7H-pyrrolo[2,3-d]pyrimidin-7-yl)acetyl)-N-(3-chloro-2-fluorobenzyl)-4-fluoropyrrolidine-2-carboxamide]	> 1
Nc1ncnc2c1c(-c1ccccc1)cn2CC(=O)N1C[C@H](F)C[C@H]1C(=O)NCc1cccc(Cl)c1F [Compound 135a, (2S,4R)-1-(2-(4-amino-5-phenyl-7H-pyrrolo[2,3-d]pyrimidin-7-yl)acetyl)-N-(3-chloro-2-fluorobenzyl)-4-fluoropyrrolidine-2-carboxamide]	0.1 to 1

The remaining lines, values ahead:

IC50 [µM]	SMILES
0.1 to 1	Nc1ncnc2c1ncn2CC(=O)N1[C@H](C(=O)NCc2cccc(Cl)c2F)C[C@@H]2C[C@@H]21 [Compound 109e, (1S,3S,5S)-2-(2-(6-amino-9H-purin-9-yl)acetyl)-N-(3-chloro-2-fluorobenzyl)-2-azabicyclo[3.1.0]hexane-3-carboxamide]
0.1 to 1	CC(C)=C(F)CNC(=O)[C@@H]1C[C@H]2C[C@H]2N1C(=O)Cn1cnc2c(N)ncnc21 [Compound 111b, (1R,3S,5R)-2-(2-(6-amino-9H-purin-9-yl)acetyl)-N-(2-fluoro-3-methylbut-2-en-1-yl)-2-azabicyclo[3.1.0]hexane-3-carboxamide]
< 0.1	Nc1ncnc2c1ncn2CC(=O)N1[C@@H]2C[C@@H]2C[C@H]1C(=O)Nc1cncc(Br)n1 [Compound 112b, (1R,3S,5R)-2-(2-(6-amino-9H-purin-9-yl)acetyl)-N-(6-bromopyrazin-2-yl)-2-azabicyclo[3.1.0]hexane-3-carboxamide]
0.1 to 1	Cc1ccc(Br)nc1NC(=O)[C@@H]1C[C@@]2(C)C[C@H]2N1C(=O)Cn1cnc2c(N)ncnc21 [Compound 113a, (1R,3S,5R)-2-(2-(6-amino-9H-purin-9-yl)acetyl)-N-(6-bromo-3-methylpyridin-2-yl)-5-methyl-2-azabicyclo[3.1.0]hexane-3-carboxamide]
< 0.1	Nc1ncnc2c1c(-c1cccnc1)cn2CC(=O)N1C[C@H](F)C[C@H]1C(=O)NCc1cccc(Cl)c1F [Compound 114f, (2S,4R)-1-(2-(4-amino-5-(pyridin-3-yl)-7H-pyrrolo[2,3-d]pyrimidin-7-yl)acetyl)-N-(3-chloro-2-fluorobenzyl)-4-fluoropyrrolidine-2-carboxamide]
0.1 to 1	NCc1cccc(-c2cn(CC(=O)N3C[C@H](F)C[C@H]3C(=O)NCc3cccc(Cl)c3F)c3ncnc(N)c23)c1 [Compound 115e, (2S,4R)-1-(2-(4-amino-5-(3-(aminomethyl)phenyl)-7H-pyrrolo[2,3-d]pyrimidin-7-yl)acetyl)-N-(3-chloro-2-fluorobenzyl)-4-fluoropyrrolidine-2-carboxamide]
0.1 to 1	Nc1ncnc2c1c(Br)cn2CC(=O)N1C[C@H](F)C[C@H]1C(=O)NCc1cccc(Cl)c1F [Compound 116b, (2S,4R)-1-(2-(4-amino-5-bromo-7H-pyrrolo[2,3-d]pyrimidin-7-yl)acetyl)-N-(3-chloro-2-fluorobenzyl)-4-fluoropyrrolidine-2-carboxamide]
< 0.1	Nc1ncnc2c1c(-c1cc3ccccc3[nH]1)cn2CC(=O)N1C[C@H](F)C[C@H]1C(=O)NCc1cccc(Cl)c1F [Compound 133b, (2S,4R)-1-(2-(4-amino-5-(1H-indol-2-yl)-7H-pyrrolo[2,3-d]pyrimidin-7-yl)acetyl)-N-(3-chloro-2-fluorobenzyl)-4-fluoropyrrolidine-2-carboxamide]
< 0.1	Nc1ncnc2c1c(-c1cccc3cc[nH]c13)cn2CC(=O)N1C[C@H](F)C[C@H]1C(=O)NCc1cccc(Cl)c1F [Compound 134b, (2S,4R)-1-(2-(4-amino-5-(1H-indol-7-yl)-7H-pyrrolo[2,3-d]pyrimidin-7-yl)acetyl)-N-(3-chloro-2-fluorobenzyl)-4-fluoropyrrolidine-2-carboxamide]
